# Laboratory results as given in patent US5147878A, “Aminoalkoxyphenyl derivatives, process of preparation and compositions containing the same” (Sanofi, priority 1986, dated 1992).
# Counter-ions that a name gives are not always drawn.
# Tests used:
# isolated rat aorta = experiment: Calcium inhibitory properties: contractile response to potassium-induced depolarization on isolated rat aorta; set-up: species or system isolated organ, male Wistar rats; conditions: for activity at 0.1 µM / activity at 0.01 µM / activity at 0.001 µM / activity at 1 µM / activity at 10 µM: Rattus norvegicus, 1 h, read-out: % of the maximum contractional effect; for activity at 0.1 µM: 10^-7 M; for activity at 0.01 µM: 10^-8 M; for activity at 0.001 µM: 10^-9 M; for activity at 1 µM: 10^-6 M; for activity at 10 µM: 10^-5 M
# Procedure, shortened: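 Male Wistar rat aorta strips under 2 g tension in modified Krebs-bicarbonate at 37° C, gassed with CO2/O2; contraction induced by 100 mM KCl potassium-Krebs. Compound incubated 60 min before repeat K+ depolarization; response expressed as % of maximum contraction before compound.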
# [1] = test system: epinephrine-induced increase in blood-pressure (anti-α effect); experiment: Antiadrenergic properties: anti-α effect (reduction of epinephrine-induced hypertension); format: in vivo; set-up: key to anti-α effect: +: for a reduction < 50%; ++: for a reduction ≥ 50%; +++: for a reduction sub-total (almost complete reduction); conditions: dog
# Method: (§1) The object of this test is to determine the capacity of the compounds of the invention for reducing the increase in epinephrine-induced increase in blood-pressure (anti-α effect) and the isoprenaline-induced acceleration in heart rate (anti-β effect), in dogs previously anaesthatized with pentobarbital and atropinized. For each dog, the dose of epinephrine (between 3 and 10 μg/kg) which induced a reproducible increase in the blood-pressure of approximately 133×10^2 Pa and the dose of isoprenaline (1 to 2 μg/kg) which induced a reproducible increase in the heart rate of approximately 70 beats/min. were first determined. The dose of epinephrine and of isoprenaline, determined in this manner, were injected alternately every ten minutes and, after two successive reference responses had been obtained, an amount of the test compound was administered intravenously. The percentage reduction in the hypertension induced by the test compound compared with the reference hypertension previously obtained (approximately 100 mm Hg) was recorded. In both cases, the results of the reduction in blood-pressure or in the heart rate have been expressed as follows: […]
# [2] = test system: isoprenaline-induced acceleration in heart rate (anti-β effect); experiment: Antiadrenergic properties: anti-β effect (reduction of isoprenaline-induced tachycardia); format: in vivo; set-up: key to anti-β effect: +: for a reduction < 50%; ++: for a reduction ≥ 50%; +++: for a reduction sub-total (almost complete reduction); conditions: dog; for inhibition in vivo at 0.13 mg/kg: 0.13 mg/kg i.v.
# Method: as §1, with “the acceleration of the heart rate” for “the hypertension”, “reference tachycardia measured” for “reference hypertension”, “previously” for “previously obtained”, “(approximately 70 beats)” for “(approximately 100 mm Hg)”
# [3] = Canis lupus familiaris, iv, 0.3 mg/kg i.v.
# [4] = Canis lupus familiaris, iv, 11.2 mg/kg i.v.
# [5] = Canis lupus familiaris, iv, 4.9 mg/kg i.v.
# [6] = Canis lupus familiaris, iv, 5.89 mg/kg i.v.
# [7] = Canis lupus familiaris, iv, 0.12 mg/kg i.v.
Compound,activity at 0.1 µM (isolated rat aorta),activity at 0.01 µM (isolated rat aorta),activity at 0.001 µM (isolated rat aorta),activity at 1 µM (isolated rat aorta),other results
"COc1cccc(CCN(C)CCCOc2ccc(S(=O)(=O)c3c(C(C)C)cn4ccccc34)cc2)c1 [Ex. 46, 2-Isopropyl-1-[4-{3-[N-methyl-N-(3-methoxy-β-phenethyl)amino]propyloxy}benzenesulphonyl]indolizine acid oxalate]",4.3%,49.5%,78.1%,,anti-α effect ([1]; 0.1 mg/kg i.v.): +++; anti-β effect ([2]; 0.1 mg/kg i.v.): +++
"COc1ccc(CCN(C)CCCOc2ccc(S(=O)(=O)c3c(C(C)C)cn4ccccc34)cc2)cc1 [Ex. 47, 2-Isopropyl-1-[4-{3-[N-methyl-N-(4-methoxy-β-phenethyl)amino]propyloxy}benzenesulphonyl]indolizine acid oxalate]",17.9%,69.6%,86.5%,,"inhibition in vivo at 0.3 mg/kg [1, 3]: ≥ 50%; inhibition in vivo at 0.3 mg/kg [2, 3]: < 50%"
"CCCCN(CCCC)CC(O)COc1ccc(S(=O)(=O)c2c(C(C)C)cn3ccccc23)cc1.Cl (stereo not shown) [Ex. 49, 2-isopropyl-1-{4-[3-(di-n-butylamino)-2-hydroxypropyloxy]-benzenesulphonyl}indolizine hydrochloride]",12.8%,67.6%,80.2%,5.4%,"anti-α effect ([1]; 1 mg/kg i.v.): +++; inhibition in vivo at 1 mg/kg ([2]; Canis lupus familiaris, iv, 1 mg/kg i.v.): ≥ 50%"
"CCCCN(CCCC)CCCOc1ccc(S(=O)(=O)c2c(C3CCCCC3)cn3ccccc23)cc1 [Ex. 51, 2-Cyclohexyl-1-{4-[3-(di-n-butylamino)propyloxy]-benzenesulphonyl}indolizin]",80.4%,,,58.9%,"anti-α effect ([1]; 5.2 mg/kg i.v.): +++; inhibition in vivo at 5.2 mg/kg ([2]; Canis lupus familiaris, iv, 5.2 mg/kg i.v.): ≥ 50%"
"CCCCN(CCCC)CCCOc1ccc(Sc2c(C(C)C)cn3ccccc23)cc1.O=C(O)C(=O)O [Ex. 52, 1-{4-[3-(di-n-butylamino)propyloxy]phenylthio}-2-isopropylindolizine oxalate]",,,,81.2%,"activity at 10 µM (isolated rat aorta): 69.2%; anti-α effect ([1]; 5.4 mg/kg i.v.): +++; inhibition in vivo at 5.4 mg/kg ([2]; Canis lupus familiaris, iv, 5.4 mg/kg i.v.): ≥ 50%"
"COc1ccc(CCN(C)CCCOc2ccc(Sc3c(C(C)C)cn4ccccc34)cc2)cc1OC [Ex. 53, 1-[4-{3-[N-methyl-N-(3,4-dimethoxy-β-phenethyl)amino]propyloxy}phenylthio]-2-isopropylindolizine oxalate]",,,,75.4%,"activity at 10 µM (isolated rat aorta): 59.8%; anti-α effect ([1]; 6.1 mg/kg i.v.): +++; inhibition in vivo at 6.1 mg/kg ([2]; Canis lupus familiaris, iv, 6.1 mg/kg i.v.): < 50%"
"COc1ccc(CCN(C)CCCOc2ccc(S(=O)(=O)c3c(C(C)C)cc4ccccn34)cc2)cc1OC [Ex. 55, 2-isopropyl-3-[4-{3-[N-methyl-N-(3,4-dimethoxy-β-phenethyl)amino]propyloxy}benzenesulphonyl]indolizine oxalate]",9.5%,34.1%,68.7%,,"anti-α effect ([1]; 0.13 mg/kg i.v.): +++; inhibition in vivo at 0.13 mg/kg ([2]; Canis lupus familiaris, iv): ≥ 50%"
"COc1ccc(CCN(C)CCCOc2ccc(S(=O)(=O)c3ccccn3)cc2)cc1OC [Ex. 59, 2-[4-{3-[N-methyl-N-(3,4-dimethoxy-β-phenethyl)amino]propyloxy}benzenesulphonyl]pyridine oxalate]",87.5%,,,81.7%,"% of the maximum contractional effect (isolated rat aorta; head printed ""10^-"" (exponent missing; first of three columns before 10^-6 M), 60 min): 33.3%; inhibition in vivo at 11.2 mg/kg [1, 4]: ≥ 50%; inhibition in vivo at 11.2 mg/kg [2, 4]: ≥ 50%"
"COc1ccc(CCN(C)CCCOc2ccc(S(=O)(=O)c3ccccc3)cc2)cc1OC [Ex. 63, 4-{3-[N-methyl-N-(3,4-dimethoxy-β-phenethyl)amino]propyloxy}benzenesulphonylbenzene hydrochloride]",73.7%,,,21.4%,"anti-α effect ([1]; 10.1 mg/kg i.v.): +++; inhibition in vivo at 10.1 mg/kg ([2]; Canis lupus familiaris, iv, 10.1 mg/kg i.v.): ≥ 50%"
"CCCCN(CCCC)CCCOc1ccc(S(=O)(=O)c2ccccc2)cc1 [Ex. 64, 4-[3-(di-n-butylamino)propyloxy]benzenesulphonylbenzene oxalate]",85.3%,,,32.4%,"inhibition in vivo at 4.9 mg/kg [1, 5]: < 50%; inhibition in vivo at 4.9 mg/kg [2, 5]: ≥ 50%"
"CCCCc1nc2ccccc2n1S(=O)(=O)c1ccc(OCCCN(CCCC)CCCC)cc1 [Ex. 65, 2-n-butyl-1-{4-[3-(di-n-butylamino)propyloxy]benzenesulphonyl}benzimidazolacid oxalate]",64.8%,,,47.5%,"inhibition in vivo at 5.89 mg/kg [1, 6]: ≥ 50%; inhibition in vivo at 5.89 mg/kg [2, 6]: ≥ 50%"
"COc1ccc(CCN(C)CCCOc2ccc(S(=O)(=O)c3c(C(C)C)oc4ccccc34)cc2)cc1OC [Ex. 66, 2-isopropyl-3-[4-{3-[N-methyl-N-(3,4-dimethoxy-β-phenethylamino]propyloxy}benzenesulphonylbenzofuran oxalate]",19.7%,60.4%,81.7%,2.6%,"anti-α effect ([1]; 0.1 mg/kg i.v.): +++; inhibition in vivo at 0.1 mg/kg ([2]; Canis lupus familiaris, iv, 0.1 mg/kg i.v.): < 50%"
"CCCc1oc2ccccc2c1S(=O)(=O)c1ccc(OCCCN(C)CCc2ccc(OC)c(OC)c2)cc1 [Ex. 67, 2-n-Propyl-3-[4-{3-[N-methyl-N-(3,4-dimethoxy-β-phenethyl)amino]propyloxy}benzenesulphonyl]benzofuran oxalate]",38.3%,80.9%,,9.3%,"anti-α effect ([1]; 1.3 mg/kg i.v.): +++; inhibition in vivo at 1.3 mg/kg ([2]; Canis lupus familiaris, iv, 1.3 mg/kg i.v.): < 50%"
"CCCc1sc2ccccc2c1S(=O)(=O)c1ccc(OCCCN(C)CCc2ccc(OC)c(OC)c2)cc1 [Ex. 68, 2-n-Propyl-3-[4-{3-[N-methyl-N-(3,4-dimethoxy-β-phenethyl)amino]propyloxy}benzenesulphonyl]benzothiophene hemioxalate]",45.3%,68.9%,,9.7%,"anti-α effect ([1]; 0.6 mg/kg i.v.): +++; inhibition in vivo at 0.6 mg/kg ([2]; Canis lupus familiaris, iv, 0.6 mg/kg i.v.): ≥ 50%"
"CCCCc1oc2ccccc2c1S(=O)(=O)c1ccc(OCCCN(C)CCc2ccc(OC)c(OC)c2)cc1 [Ex. 69, 2-n-butyl-3-[4-{3-[N-methyl-N-(3,4-dimethoxy-β-phenethyl)amino]propyloxy}benzenesulphonyl]benzofuran hydrochloride]",59%,76%,,36.8%,anti-α effect ([1]; 1.2 mg/kg i.v.): +++; anti-β effect ([2]; 1.2 mg/kg i.v.): + +
"CCCCN(CCCC)CCCOc1ccc(S(=O)(=O)c2c(C(C)C)nn3ccccc23)cc1 [Ex. 70, 2-isopropyl-3-{4-[3-(di-n-butylamino)propyloxy]benzenesulphonyl}pyrazolo[1,5-a]pyridine oxalate]",18.9%,83%,,0%,"inhibition in vivo at 0.12 mg/kg [1, 7]: ≥ 50%; inhibition in vivo at 0.12 mg/kg [2, 7]: < 50%"
"COc1ccc(CCN(C)CCCOc2ccc(S(=O)(=O)c3c(C(C)C)nn4ccccc34)cc2)cc1OC [Ex. 71, 2-isopropyl-3-[4-{3-[N-methyl-N-(3,4-dimethoxy-β-phenethyl)amino]propyloxy}benzenesulphonyl]pyrazolo(1,5-a]pyridine oxalate]",15.1%,67.1%,84.9%,0%,"anti-α effect ([1]; 0.13 mg/kg i.v.): +++; inhibition in vivo at 0.13 mg/kg ([2]; Canis lupus familiaris, iv): ≥ 50%"
